Source: a melting point compilation (Tetko et al.; mined from patent text by program, amines drawn as free bases though some values may be those of a salt)

SMILES	melting point
CSCCn1c2ccc(C)cc2c(=O)c2c1cnn2C	125 °C
CCCCc1c(OC)cc(C(=O)O)nc1OC	113 to 114 °C
CC1(C)C=C(c2cccnc2)c2cc(C#N)ccc2OC1	150 °C
CCCC(CCC)n1c(CC)nc2c1c(=O)n(C)c(=O)n2-c1c(C)cc(C)cc1C	195 to 196 °C
c1ccc(N2CCN(c3ccccc3)C2Oc2ccc(C3N(c4ccccc4)CCN3c3ccccc3)cc2)cc1	218 to 221 °C
Fc1ccc(N2CCC(N3CCN(c4cccc5cccnc45)CC3)CC2)c2ncccc12	224 °C
O=C(NC(CCCN1CCN(c2ncc(F)cn2)CC1)c1ccc(F)cc1)c1ccc(F)cc1 (centres undefined)	147 to 148 °C
Nc1ncc(-c2cccc(Nc3ccc(-c4ccoc4)cc3N)c2)cn1	208 to 209 °C
CC1CC2C3CCC4=CC(=O)CCC4(C)C3=CCC2(C)C1(O)C(=O)CO (centres undefined)	167 to 168 °C
Cn1ncc2c1-c1c(Oc3cc4c(cc3[N+](=O)[O-])OCO4)sc(C(N)=O)c1CC2	230 to 231 °C
CCOC(=O)c1cnc2c(c(C)nn2CC)c1O	91 to 93 °C
CN1CCN(c2ccc(Nc3nccc(-c4c[nH]nc4-c4ccc(Cl)cc4)n3)cc2)CC1	282 to 284 °C
Cc1nnsc1C(=O)Nc1ccc(-n2nc(C(F)(F)F)cc2C2CC2)nc1	170 to 172 °C
C=CC[C@@H]1C[C@@H](COc2ccc(-c3ccc(C#N)cc3)cc2)NC1=O	99 to 101 °C
CCCCNC(=O)C1=C(C(=O)Nc2cc(OC3CCCC3)c(Cl)cc2F)CCCC1	142 to 144 °C
COc1ccc(C2C(C(=O)/C=C/c3ccc(OC)c(OC)c3)C(=O)CC(c3ccc(OC)c(OC)c3)C2[N+](=O)[O-])cc1 (centres undefined)	158 to 160 °C
Cc1ccccc1CNc1ncnc2c1ncn2C1OC(CO)C(O)C1O (centres undefined)	162 to 164 °C
CCCNCc1cc2ccc(NC(=O)c3ccc(OC[C@@H]4CCCO4)cc3)c(C)c2[nH]1	117 to 119 °C
O=c1[nH]nc(-c2cccc(Cl)c2)c2ncccc12	268 to 269 °C
Fc1cc2ccc(CBr)nc2cc1F	113 to 115 °C
CNC(=O)c1ccc(-c2ccc3nnn(Cc4ccc5ncccc5c4)c3n2)cc1F	212 to 214 °C
O=c1[nH]c2cc(Cl)ccc2c(O)c1Sc1ccc([N+](=O)[O-])cc1	> 300 °C
CCCCc1csc2ccc3[nH]c4c(c3c12)CN(C)CC4	192 to 193 °C

The remaining lines, values ahead:

melting point	SMILES
233 °C	CC1SC(=O)NN=C1c1ccc2c(c1)C(=Cc1ccccc1O)C(=O)N2 (centres undefined)
159 °C	CC(C)(C)OC(=O)c1ccccc1NC(=O)CN1C(=O)c2ccccc2C1=O
158 to 161 °C	Cc1c(-c2ccccc2)oc2c(CS(=O)(=O)CCCl)cccc2c1=O
63 to 65 °C	CCOC(=O)c1cc(N=Cc2ccccc2)ccc1O
45 to 47 °C	CCOC(=O)c1oc2cccc(COC)c2c1C
235 to 237 °C	CC1=C(C(=O)OCCCl)C(c2cccc3c(=O)c(C)c(-c4ccccc4)oc23)C(C(=O)OC(C)C)=C(C)N1 (centres undefined)
174 °C	CCCNC(=O)C(O)C1c2ccccc2C(=O)N1c1ccc2ccc(Br)nc2n1 (centres undefined)
207 to 210 °C	O=C(O)CN1C(=O)[C@@H](N[C@@H](CCC2CCCCC2)C(=O)O)CSc2ccccc21
223 to 225 °C	CCc1nn(-c2cc([N+](=O)[O-])ccc2Br)c(=O)n1Cc1ccc(-c2ccccc2S(=O)(=O)NC(C)(C)C)cc1F
70 to 71 °C	CCO/C(=N/O)C1Cc2cc(C(=O)c3ccccc3F)c(O)c(C)c2O1 (centres undefined)
67 to 68 °C	C=CCNc1cc(Oc2ccccc2)ccc1[N+](=O)[O-]
116 to 118 °C	CC(C)=CCOc1ccc2c(=O)c3ccccc3oc2c1C(=O)C=Cc1ccccc1
177 to 179 °C	CS(=O)(=O)c1ccc(-c2sc(-c3ccccc3Cl)nc2-c2ccc(Cl)cc2)cc1
> 260 °C	O=C(c1ccc(Cl)cc1)c1ccc2[nH]c(=O)cc(C(=O)O)c2c1
173 to 176 °C	O=C(NO)c1ccc2c(c1)CCN(C(=O)NCCc1c[nH]c3ccccc13)C2
46 to 48 °C	CC1CN(C2=Nc3ccccc3Oc3ccccc32)C(C)CN1 (centres undefined)
244 to 246 °C	CC(C(=O)O)c1ccc(-c2cn3ccccc3n2)cc1 (centres undefined)
147 °C	CC(C)CCC(=O)OC1c2ccccc2C(=O)N1c1ccc2ccc(Cl)nc2n1 (centres undefined)
171 to 172 °C	CC(C)(C)c1cc(C(=O)NCc2cccc(N)c2)cc(C(C)(C)C)c1O
> 180 °C	Nc1ccc(Oc2ccccc2Oc2ccc(N)c(O)c2)cc1O
192 to 193 °C	O=C1Oc2ccc3ccccc3c2CC1C(=O)c1cccc(C(F)(F)F)c1 (centres undefined)
144 to 146 °C	C#CCc1c(C)nc2c(OCc3c(C)cccc3N)cccn12
80 to 85 °C	Cn1c(CC#N)ccc1C(=O)c1ccccc1Cl
143 °C	O=C1OCC(CCO)(c2ccc(Cl)c(Cl)c2)CN1Cc1ccccc1 (centres undefined)
81 °C	CCN(CC)C(=O)Oc1nc(-c2ccccc2)cc2ccccc12
156 to 157 °C	CCNCC(=O)Nc1cc(NS(C)(=O)=O)c(Oc2ccccc2)cc1[N+](=O)[O-]
